Patent publication US11246873B2, “Directed differentiation of oligodendrocyte precursor cells to a myelinating cell fate” (The Scripps Research Institute, priority 2011, dated 2022)
“Also recorded” adds a separate entry of the source.

What was measured:
OPCs [1] = assay: qRT-PCR of MBP and MOG expression in compound treated OPCs; format: cell-based, rat; conditions: EC90 concentrations, 6 days
Source text: FIG. 2A-C. […] (A) Western blot analysis of OPCs treated with compounds at EC90 concentrations for 6 days. Total protein was isolated from cell pellets and probed for myelin basic protein (MBP) and myelin oligodendrocyte glycoprotein (MOG) using specific antibodies. (B-C) Quantitative RT-PCR (qRT-PCR) analysis of OPCs treated with compounds at EC90 concentrations for 6 days. Total RNA was isolated from cell pellets and reverse transcribed. MBP and MOG expression was quantified using specific probes and Taqman-based qRT-PCR. Expression was normalized to the internal controls β-actin and GAPDH. Fold change in gene expression over DMSO treated control cells is plotted for MBP (B) and MOG (C).

OPCs [2] = assay: Immunofluorescence analysis of mature oligodendrocyte markers (MBP, MOG, CNP, GalC, O1, O4); format: cell-based, rat; conditions: OPCs treated 6 days
Source text: FIG. 3. Immunofluorescence analysis of compound treated OPCs using mature oligodendrocyte specific markers. Immunofluorescence staining using specific antibodies for MBP, MOG, and 2′,3′-cyclic nucleotide 3′ phosphodiesterase (CNP). Nuclei were identified using DAPI.
FIG. 4. Immunofluorescence analysis of compound treated OPCs using mature oligodendrocyte specific markers. Immunofluorescence staining using specific antibodies for galactocereberoside (GalC), oligodendrocyte marker O1 (O1) and oligodendrocyte marker O4 (O4). Nuclei were identified using DAPI.
FIG. 14. Compound treatment induces the differentiation of OPCs to mature oligodendrocytes. […] Cells were fixed and immunostained for MBP, MOG, CNP, GalC, O1, or O4.
Immunofluorescence was also used to confirm that the hits were able to induce oligodendrocyte maturation.

OPCs [3] = assay: Western blot of MBP and MOG in compound treated OPCs; format: cell-based, rat; conditions: OPCs treated 6 days
Source text: FIG. 2A-C. Neurotransmitter receptor modulating agents induce the differentiation of OPCs to a myelinating oligodendrocyte cell fate. (A) Western blot analysis of OPCs treated with compounds at EC90 concentrations for 6 days. Total protein was isolated from cell pellets and probed for myelin basic protein (MBP) and myelin oligodendrocyte glycoprotein (MOG) using specific antibodies. (B-C) Quantitative RT-PCR (qRT-PCR) analysis of OPCs treated with compounds at EC90 concentrations for 6 days. Total RNA was isolated from cell pellets and reverse transcribed. MBP and MOG expression was quantified using specific probes and Taqman-based qRT-PCR. Expression was normalized to the internal controls β-actin and GAPDH. Fold change in gene expression over DMSO treated control cells is plotted for MBP (B) and MOG (C).
FIG. 13. […] After 6 days in culture, cells were analyzed for MBP and MOG expression by Western blot.

[4] = tested on: rat optic nerve derived OPCs; assay: High content imaging assay of OPC differentiation (MBP immunostaining, OPERA); format: cell-based; conditions: for induction of OPC differentiation (MBP staining): OPCs in differentiation medium (2 ng/ml PDGF), 6 days
Experimental: FIG. 1A-C. […] The calculated EC50 values were determined using appropriate Graphpad Prism 5.0 curve fitting software. […] OPCs were plated in 384 well plates at 1000 cells per well in OPC media containing basal PDGF-αα (2 ng/mL) and treated with serial dilutions of compounds. Following six days of compound treatment, cells were fixed and subjected to immunofluorescence analysis using anti-myelin basic protein (MBP) antibody. Image acquisition and quantification of MBP staining was performed using the OPERA imaging system.
FIG. 11A-B. Screen to identify inducers of OPC differentiation. (A) OPCs were maintained as proliferating A2B5-positive cells under basal growth conditions (Neurobasal medium, B27 supplement without Vitamin A, non-essential amino acids, L-Glutamine, 30 ng/ml PDGF). OPCs were plated in basal differentiation media (Neurobasal medium, B27 supplement without Vitamin A, non-essential amino acids, L-Glutamine, 2 ng/ml PDGF), treated with DMSO (<0.1%) or thyroid hormone (1 uM), fixed after 6 days in culture, and stained using antibodies for CNP, O4, or MBP. […] (B) Screen strategy using A2B5 positive OPCs cultured under basal differentiation conditions and treated with compounds for 6 days to identify small molecules that induce the differentiation of OPCs to mature, MBP expressing oligodendrocytes.
FIG. 12A-B. Primary hit confirmation. (A) Dose response assay used to confirm primary screening hits and determine potency (EC50). (EC50) is defined as the concentration that results in a half maximal increase in the percentage of total cells that express MBP as detected by immunostaining. […] Cells were fixed and immunostained using antibodies for MBP. Error bars represent standard deviations from 3 replicate experiments. […]
FIG. 21. […] OPCs were plated in differentiation medium (2 ng/ml PDGF) and treated with various concentrations of compounds for 6 days. Cells were fixed and immunostained for MBP.
A large-scale small molecule screen was conducted to identify small molecules that promote the differentiation of oligodendrocyte precursor cells (OPCs) to a mature myelinating fate. High content imaging was used to detect in-well differentiation of rat optic nerve derived OPCs. Rat optic nerve derived OPCs were expanded en masse in OPC media containing 30 ng/mL PDGFαα. To screen for small molecule inducers of OPC differentiation, OPCs (cultured for fewer than 15 passages) were plated in poly-D-lysine coated 384 well culture plates in OPC Media containing 2 ng/mL PDGFαα and immediately treated with compounds at a final concentration of 6 μM (0.6% DMSO). Compound treated cells were incubated at 37° C., 5% CO2 for 6 days. At the end of 6 days, cells were fixed in 4% paraformaldehyde and subjected to immunofluorescence analysis. Anti-Myelin Basic Protein monoclonal antibody (a.a. 129-138, clone 1 monoclonal antibody, Millipore) (1:1000 dilution) in blocking buffere solution (3% BSA, 0.3% Triton X-100 in PBS) was added to fixed and washed cells and incubated at 4° C. overnight.

muscarinic receptor = assay: Carbachol co-treatment in compound induced OPC differentiation (MBP staining); format: cell-based, rat; conditions: compounds at EC90 (benztropine 2.3 uM), serial dilutions of carbachol, 6 days
Experimental: (§1) Following 6 days of treatment, cells were fixed and stained for MBP. Plates were imaged using the OPERA high content screening system and MBP staining was quantified as described. […] OPCs were plated in 384-well plates at 5000 cells per well in media containing basal PDGF-αα. Cells were equilibrated with Ca^2+ sensitive Fluo-3AM® dye in HBSS for 30 min. […] Ca^2+ influx was immediately measured using the FLIPR TETRA® system.
OPCs express mAChRs, predominantly subtypes M1, M3, and M5 (F. Ragheb et al., J Neurochem, 77, 1396 (2001)). […] Activation of M1 and M3 mAChRs is coupled to downstream signal transduction events through phospholipase C, which results in increased intracellular calcium concentrations (F. Ragheb et al., J Neurochem, 77, 1396 (2001)) (FIG. 23C). M2 and M4 mAChR activation inhibits adenylatecyclase, leading to decreased intracellular cAMP levels (C. C. Felder, FASEB J, 9, 619 (1995); M. Lopez-Ilasaca et al., Science, 275, 394 (1997)). […] Acetylcholine is a known regulator of OPC proliferation and, as such, muscarinic receptor subtypes represent a reasonable class of therapeutic targets for the modulation of OPC proliferation and differentiation (F. De Angelis et al., Dev Neurobiol, (2011)).

[5] = tested on: M1/M3 muscarinic receptors
Experimental: as §1
(A-C) OPCs were plated in differentiation media for 12 hours. […] (C) Atropine, a muscarinic antagonist, serves as a positive control. (D) OPCs were plated in differentiation medium for 12 hours. A cAMP-HTRF assay was performed using the cAMP dynamic 2 kit. […] IBMX was added as a cAMP stabilizer, and forskolin was a positive control.

PLP induced EAE mice = tested on: PLP induced EAE mice
Experimental: (A-E) SJL mice were immunized with proteolipid peptide (PLP) and pertussis toxin and monitored daily with scoring on the standard clinical EAE scale (0-5). Compounds were administered daily for the duration of the study in saline at 10 mg/kg via intra-peritoneal injection (0.1 ml), starting on the day of the appearance of clinical EAE symptoms (day 10). […] Mean clinical EAE score and standard error of mean (SEM) are shown for each study group.
FIG. 25. […] EAE was induced in mice using PLP and pertussis toxin. […] Prophylactic dosing is defined as administration of compound commenced on the day of PLP injection. Error bars indicate standard deviation of the mean within each group of 8 mice.
(A-F) EAE was induced in mice using PLP and pertussis toxin. […] Error bars indicate standard deviation of the mean within each group of 8 mice.
(A-F) EAE was induced in mice by injecting PLP in complete Freund's adjuvant (CFA) and pertussis toxin, and the animals were scored daily for clinical severity of disease on a scale of 0-5. […] Error bars indicate standard deviation of the mean within each group of 8-10 mice.
10 week old SJL mice were immunized with PLP emulsion and pertusis toxin to induce EAE. […] Compounds were administered daily via intraperitoneal injection of 100 ul in sterile saline at 10 mg/kg alone or in combination with mycophenolate motefil in sterile saline at pH 5 at 20 mg/kg. Compound administration was initiated at disease onset (day 10) while mycophenolate motefil administration was initiated on Day 14. The mice were scored daily on a standard EAE scale of 0-5.
This model is most commonly used to evaluate the potential efficacy of immunomodulatory agents, but can also be used to determine the effectiveness of promyelinating agents that function by enhancing OPC differentiation (M. Fernandez et al., Proc Natl Acad Sci U.S.A, 101, 16363 (2004); X. Lee et al., J Neurosci, 27, 220 (2007); reviewed in R. J. Franklin, C. Ffrench-Constant, Nat Rev Neurosci, 9, 839 (2008)). […] We next evaluated efficacy when the drug is dosed therapeutically, by starting daily injections at the first sign of disease onset.
For the treatment of MS, an OPC differentiation inducing drug would most likely be introduced clinically as part of a combination therapy with an immunosuppressive drug. […] The former reduces T-cell proliferation and alters cytokine expression (A. Noronha, A. Toscas, M. A. Jensen, J Neuroimmunol, 46, 145 (1993); A. Noronha, A. Toscas, M. A. Jensen, Ann Neurol, 27, 207 (1990)), while the latter is an S1P agonist that regulates T-cell trafficking (V. Brinkmann et al., J Biol Chem, 277, 21453 (2002); V. Brinkmann et al., Nat Rev Drug Discov, 9, 883 (2010)).

[6] = tested on: total splenocytes stimulated with CD3; assay: T-cell activation (CD69, CD25) and proliferation (CFSE) in vitro; format: cell-based, mouse; conditions: versus DMSO
Source text: (A-F) Total splenocytes were isolated from mice and stimulated with CD3 and analyzed by flow cytometry for expression of T-cell activation markers CD69 and CD25 and T-cell proliferation using CFSE. (A) Unstimulated cells. (B) DMSO treated cells. […] The numbers represent percentage gated populations positive for the given marker.
The primary immunological processes involved in MS and EAE are T-cell mediated and the primary treatment paradigms are based on immunomodulatory drugs (T. Kopadze et al., Arch Neurol, 63, 1572 (2006); J. M. Greer et al., J Immunol, 180, 6402 (2007), M. P. Pender and J. M. Greer, curr Allergy Asthma Rep, 7, 285 (2007)).

SMILES | induction of MBP expression (qRT-PCR) over DMSO (OPCs [1]) | induction of MOG expression (qRT-PCR) over DMSO (OPCs [1]) | markers of mature myelinating oligodendrocytes (MBP, MOG, CNP, GalC, O1, O4) by immunofluorescence (OPCs [2]) | MBP and MOG expression (Western blot) (OPCs [3]) | percentage of resulting MBP-positive cells ([4]; OPC sample cultured with agent at maximum potency, listed as GBT12935) | induction of OPC differentiation (MBP staining) [4] | effect of carbachol on compound induced OPC differentiation (muscarinic receptor) | effect on carbachol induced Ca2+ influx [5] | mean maximal clinical EAE score in relapse, day 25 (PLP induced EAE mice; SJL mice, scale 0-5, compounds 10 mg/kg i.p. daily from day 10, mycophenolate mofetil 20 mg/kg from day 14, mean ± SEM) | clinical severity versus vehicle, dosing after disease onset (therapeutic mode) (PLP induced EAE mice; compounds 10 mg/kg i.p. daily from first EAE symptoms, mycophenolate 20 mg/kg from day 14) | T-cell activation (CD69, CD25) [6] | T-cell proliferation (CFSE) [6] | effect of carbachol on compound induced OPC differentiation (muscarinic receptor; listed as carbapentane)
c1ccc(CCCN2CCN(CCOC(c3ccccc3)c3ccccc3)CC2)cc1 [GBR12935] | two-fold | two-fold | confirmed the presence of multiple markers of mature myelinating oligodendrocytes | positive | over 15% | promote OPC differentiation | did not inhibit; also recorded: no effect | no effect | – | – | – | – | –
COc1c(C)c2c(c(O)c1C/C=C(\C)CCC(=O)OCCN1CCOCC1)C(=O)OC2 [Mycophenolate mofetil, mycophenolate mofetil] | – | – | – | – | – | – | – | – | 0.7±0.3 | decrease in severity of the relapse | suppresses the activation and proliferation of T-cells | suppresses T-cell proliferation | –
CCN(CC)CCOCCOC(=O)C1(c2ccccc2)CCCC1 [carbetapentane] | two-fold | two-fold | confirmed the presence of multiple markers of mature myelinating oligodendrocytes | positive | – | promote OPC differentiation | inhibited | inhibit | – | – | – | – | dose dependent inhibition
OCc1cc(C(O)CNCCCCCCOCCCCc2ccccc2)ccc1O (stereo not drawn) [salmeterol] | two-fold | two-fold | confirmed the presence of multiple markers of mature myelinating oligodendrocytes | positive | – | promote OPC differentiation | did not inhibit; also recorded: no effect | no effect | – | – | – | – | –
